Data from patent publication US6737383B1, “Herbicidal oxadiazolidines” (priority 1999, dated 2004).

Tests used:
smallflower flatsedge = assay: Test B flood test smallflower flatsedge; assay type: in vivo, Cyperus difformis
Summary of the method: (§1)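 Read-out is a visual response score from 0 (no effect) to 10 (complete control), assigned by comparison with untreated controls. Treatment was applied at the 2-leaf stage, and plants stayed in the greenhouse for twelve to sixteen days before scoring.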

velvetleaf = assay: Test B pre/postemergence velvetleaf; assay type: in vivo, Abutilon theophrasti; details: for Velvetleaf plant response rating: scale of 0 to 10 where 0 is no effect and 10 is complete control
Summary of the method: (§2)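 Test chemicals in a non-phytotoxic solvent mixture with surfactant were sprayed preemergence onto planted seeds and postemergence onto plants 2 to 18 cm tall (1- to 4-leaf stage). After twelve to sixteen days in a greenhouse, injury was visually rated against untreated controls from 0 (no effect) to 10 (complete control).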

wild oat = assay: Test B pre/postemergence wild oat; assay type: in vivo, Avena fatua; details: for Wild oats plant response rating: scale of 0 to 10 where 0 is no effect and 10 is complete control
Summary of the method: as §2

wheat = assay: Test B pre/postemergence wheat; assay type: in vivo, Triticum aestivum; details: for Wheat plant response rating: scale of 0 to 10 where 0 is no effect and 10 is complete control
Summary of the method: as §2

crabgrass = assay: Test B pre/postemergence crabgrass; assay type: in vivo, Digitaria sanguinalis; details: for Crabgrass plant response rating: scale of 0 to 10 where 0 is no effect and 10 is complete control
Summary of the method: as §2

morningglory = assay: Test B pre/postemergence morningglory; assay type: in vivo, Ipomoea hederacea; details: for Morningglory plant response rating: scale of 0 to 10 where 0 is no effect and 10 is complete control
Summary of the method: as §2

soybean = assay: Test B pre/postemergence soybean; assay type: in vivo, Glycine max; details: for Soybean plant response rating: scale of 0 to 10 where 0 is no effect and 10 is complete control
Summary of the method: as §2

pigweed = assay: Test B pre/postemergence pigweed; assay type: in vivo, Amaranthus retroflexus; details: for Redroot pigweed plant response rating: scale of 0 to 10 where 0 is no effect and 10 is complete control
Summary of the method: as §2

surinam grass = assay: Test B pre/postemergence surinam grass; assay type: in vivo, Brachiaria decumbens; details: for B. signalgrass plant response rating: scale of 0 to 10 where 0 is no effect and 10 is complete control
Summary of the method: as §2

bedstraw = assay: Test B pre/postemergence bedstraw; assay type: in vivo, Galium aparine; details: for Bedstraw plant response rating: scale of 0 to 10 where 0 is no effect and 10 is complete control
Summary of the method: as §2

rice = assay: Test B flood test rice; assay type: in vivo, Oryza sativa
Summary of the method: as §1

blackgrass = assay: Test B pre/postemergence blackgrass; assay type: in vivo, Alopecurus myosuroides; details: for Blackgrass plant response rating: scale of 0 to 10 where 0 is no effect and 10 is complete control
Summary of the method: as §2

duck salad = assay: Test B flood test duck salad; assay type: in vivo, Heteranthera limosa
Summary of the method: as §1

purple nutsedge = assay: Test B pre/postemergence purple nutsedge; assay type: in vivo, Cyperus rotundus; details: for Nutsedge plant response rating: scale of 0 to 10 where 0 is no effect and 10 is complete control
Summary of the method: as §2

giant foxtail = assay: Test B pre/postemergence giant foxtail; assay type: in vivo, Setaria faberii; details: for Giant foxtail plant response rating: scale of 0 to 10 where 0 is no effect and 10 is complete control
Summary of the method: as §2

corn = assay: Test B pre/postemergence corn; assay type: in vivo, Zea mays; details: for Corn plant response rating: scale of 0 to 10 where 0 is no effect and 10 is complete control
Summary of the method: as §2

[1] = Rate 62 g/ha, flood test species, Pre-emergence, visual evaluation after twelve to sixteen days
[2] = Rate 125 g/ha, under heading Pre-emergence, flood test species, visual evaluation after twelve to sixteen days
[3] = Rate 250 g/ha, Pre-emergence, flood-test species, scale 0 to 10, 0 is no effect, 10 is complete control
[4] = Rate 500 g/ha, Pre-emergence, flood test species, scale 0 to 10 (0 no effect, 10 complete control)
[5] = Postemergence, Rate 125 g/ha, scale 0 to 10, 0 is no effect, 10 is complete control
[6] = Postemergence, Rate 250 g/ha, scale 0 to 10, 0 is no effect, 10 is complete control
[7] = Preemergence, Rate 62 g/ha, scale 0 to 10 (0 no effect, 10 complete control)
[8] = Rate 500 g/ha, Postemergence, scale 0 to 10, 0 no effect, 10 complete control

Compound: Cc1nnsc1Cn1c(=O)on(C(=O)N(c2ccccc2)C(C)C)c1=O [Compound 378]
- Plant response rating, S. Flatsedge (0 to 10 scale, 0 is no effect, 10 is complete control) (smallflower flatsedge; [1]): 0
- S. Flatsedge plant response rating (0 to 10 scale, 0 is no effect, 10 is complete control) (smallflower flatsedge; [2]): 0
- S. Flatsedge plant response rating (smallflower flatsedge; [3]): 0
- S. Flatsedge plant response rating (smallflower flatsedge; [4]): 0
- Plant response rating, Velvetleaf (velvetleaf; [5]): 0
- Plant response rating, Velvetleaf (velvetleaf; [6]): 0
- Plant response rating, Velvetleaf (velvetleaf; [7]): 0
- Velvetleaf plant response rating (0 to 10 scale) (velvetleaf; Preemergence, Rate 125 g/ha): 0
- Velvetleaf plant response rating (velvetleaf; Preemergence, Rate 250 g/ha): 0
- Velvetleaf plant response rating (velvetleaf; Preemergence, Rate 500 g/ha): 0
- Velvetleaf plant response rating (velvetleaf; Rate 62 g/ha, Postemergence): 0
- Plant response rating, Velvetleaf (velvetleaf; [8]): 3
- Plant response rating, Wild oats (wild oat; [5]): 0
- Plant response rating, Wild oats (wild oat; [6]): 0
- Plant response rating, Wild oats (wild oat; [7]): 0
- Wild oats plant response rating (0 to 10 scale) (wild oat; Preemergence, Rate 125 g/ha): 0
- Wild oats plant response rating (wild oat; Preemergence, Rate 250 g/ha): 0
- Wild oats plant response rating (wild oat; Preemergence, Rate 500 g/ha): 0
- Wild oats plant response rating (wild oat; Rate 62 g/ha, Postemergence): 0
- Plant response rating, Wild oats (wild oat; [8]): 0
- Plant response rating, Wheat (wheat; [5]): 0
- Plant response rating, Wheat (wheat; [6]): 0
- Plant response rating, Wheat (wheat; [7]): 0
- Wheat plant response rating (0 to 10 scale) (wheat; Preemergence, Rate 125 g/ha): 0
- Wheat plant response rating (wheat; Preemergence, Rate 250 g/ha): 0
- Wheat plant response rating (wheat; Preemergence, Rate 500 g/ha): 0
- Wheat plant response rating (wheat; Rate 62 g/ha, Postemergence): 0
- Plant response rating, Wheat (wheat; [8]): 0
- Plant response rating, Crabgrass (crabgrass; [5]): 0
- Plant response rating, Crabgrass (crabgrass; [6]): 0
- Plant response rating, Crabgrass (crabgrass; [7]): 0
- Crabgrass plant response rating (0 to 10 scale) (crabgrass; Preemergence, Rate 125 g/ha): 3
- Crabgrass plant response rating (crabgrass; Preemergence, Rate 250 g/ha): 9
- Crabgrass plant response rating (crabgrass; Preemergence, Rate 500 g/ha): 10
- Crabgrass plant response rating (crabgrass; Rate 62 g/ha, Postemergence): 0
- Plant response rating, Crabgrass (crabgrass; [8]): 2
- Plant response rating, Morningglory (morningglory; [5]): 7
- Plant response rating, Morningglory (morningglory; [6]): 10
- Plant response rating, Morningglory (morningglory; [7]): 0
- Morningglory plant response rating (0 to 10 scale) (morningglory; Preemergence, Rate 125 g/ha): 0
- Morningglory plant response rating (morningglory; Preemergence, Rate 250 g/ha): 0
- Morningglory plant response rating (morningglory; Preemergence, Rate 500 g/ha): 0
- Morningglory plant response rating (morningglory; Rate 62 g/ha, Postemergence): 5
- Plant response rating, Morningglory (morningglory; [8]): 10
- Plant response rating, Soybean (soybean; [5]): 0
- Plant response rating, Soybean (soybean; [6]): 0
- Plant response rating, Soybean (soybean; [7]): 0
- Soybean plant response rating (0 to 10 scale) (soybean; Preemergence, Rate 125 g/ha): 0
- Soybean plant response rating (soybean; Preemergence, Rate 250 g/ha): 0
- Soybean plant response rating (soybean; Preemergence, Rate 500 g/ha): 0
- Soybean plant response rating (soybean; Rate 62 g/ha, Postemergence): 0
- Plant response rating, Soybean (soybean; [8]): 2
- Plant response rating, Redroot pigweed (pigweed; [5]): 0
- Plant response rating, Redroot pigweed (pigweed; [6]): 0
- Plant response rating, Redroot pigweed (pigweed; [7]): 0
- Redroot pigweed plant response rating (0 to 10 scale) (pigweed; Preemergence, Rate 125 g/ha): 0
- Redroot pigweed plant response rating (pigweed; Preemergence, Rate 250 g/ha): 0
- Redroot pigweed plant response rating (pigweed; Preemergence, Rate 500 g/ha): 0
- Redroot pigweed plant response rating (pigweed; Rate 62 g/ha, Postemergence): 0
- Plant response rating, Redroot pigweed (pigweed; [8]): 2
- Plant response rating, B. signalgrass (surinam grass; [5]): 0
- Plant response rating, B. signalgrass (surinam grass; [6]): 0
- Plant response rating, B. signalgrass (surinam grass; [7]): 0
- B. signalgrass plant response rating (0 to 10 scale, 0 is no effect, 10 is complete control) (surinam grass; Preemergence, Rate 125 g/ha): 0
- B. signalgrass plant response rating (surinam grass; Preemergence, Rate 250 g/ha): 0
- B. signalgrass plant response rating (surinam grass; Preemergence, Rate 500 g/ha): 0
- B. signalgrass plant response rating (surinam grass; Rate 62 g/ha, Postemergence): 0
- Plant response rating, B. signalgrass (surinam grass; [8]): 2
- Plant response rating, Bedstraw (bedstraw; [6]): 0
- Plant response rating, Bedstraw (bedstraw; [7]): 0
- Bedstraw plant response rating (0 to 10 scale) (bedstraw; Preemergence, Rate 125 g/ha): 0
- Bedstraw plant response rating (bedstraw; Preemergence, Rate 250 g/ha): 0
- Bedstraw plant response rating (bedstraw; Preemergence, Rate 500 g/ha): 0
- Plant response rating, Rice (0 to 10 scale, 0 is no effect, 10 is complete control) (rice; [1]): 0
- Rice plant response rating (0 to 10 scale, 0 is no effect, 10 is complete control) (rice; [2]): 0
- Rice plant response rating (rice; [3]): 0
- Rice plant response rating (rice; [4]): 0
- Plant response rating, Blackgrass (blackgrass; [5]): 0
- Plant response rating, Blackgrass (blackgrass; [6]): 0
- Plant response rating, Blackgrass (blackgrass; [7]): 0
- Blackgrass plant response rating (0 to 10 scale) (blackgrass; Preemergence, Rate 125 g/ha): 0
- Blackgrass plant response rating (blackgrass; Preemergence, Rate 250 g/ha): 0
- Blackgrass plant response rating (blackgrass; Preemergence, Rate 500 g/ha): 0
- Blackgrass plant response rating (blackgrass; Rate 62 g/ha, Postemergence): 0
- Plant response rating, Ducksalad (0 to 10 scale, 0 is no effect, 10 is complete control) (duck salad; [1]): 0
- Ducksalad plant response rating (0 to 10 scale, 0 is no effect, 10 is complete control) (duck salad; [2]): 0
- Ducksalad plant response rating (duck salad; [3]): 0
- Ducksalad plant response rating (duck salad; [4]): 0
- Plant response rating, Nutsedge (purple nutsedge; [5]): 0
- Plant response rating, Nutsedge (purple nutsedge; [6]): 0
- Plant response rating, Nutsedge (purple nutsedge; [7]): 0
- Nutsedge plant response rating (0 to 10 scale) (purple nutsedge; Preemergence, Rate 125 g/ha): 0
- Nutsedge plant response rating (purple nutsedge; Preemergence, Rate 250 g/ha): 0
- Nutsedge plant response rating (purple nutsedge; Preemergence, Rate 500 g/ha): 0
- Nutsedge plant response rating (purple nutsedge; Rate 62 g/ha, Postemergence): 0
- Plant response rating, Nutsedge (purple nutsedge; [8]): 0
- Plant response rating, Giant foxtail (giant foxtail; [5]): 0
- Plant response rating, Giant foxtail (giant foxtail; [6]): 3
- Plant response rating, Giant foxtail (giant foxtail; [7]): 4
- Giant foxtail plant response rating (0 to 10 scale) (giant foxtail; Preemergence, Rate 125 g/ha): 4
- Giant foxtail plant response rating (giant foxtail; Preemergence, Rate 250 g/ha): 10
- Giant foxtail plant response rating (giant foxtail; Preemergence, Rate 500 g/ha): 10
- Giant foxtail plant response rating (giant foxtail; Rate 62 g/ha, Postemergence): 0
- Plant response rating, Giant foxtail (giant foxtail; [8]): 8
- Plant response rating, Corn (corn; [5]): 0
- Plant response rating, Corn (corn; [6]): 0
- Plant response rating, Corn (corn; [7]): 0
- Corn plant response rating (0 to 10 scale) (corn; Preemergence, Rate 125 g/ha): 0
- Corn plant response rating (corn; Preemergence, Rate 250 g/ha): 0
- Corn plant response rating (corn; Preemergence, Rate 500 g/ha): 0
- Corn plant response rating (corn; Rate 62 g/ha, Postemergence): 0
- Plant response rating, Corn (corn; [8]): 0
